Measured values taken from patent US20120001065A1, “EVALUATING RENAL FUNCTION” (Mayo Foundation for Medical Education and Rsearch, priority 2009, published 2012).
Where “and” joins values, the source holds several entries; their conditions need not be identical. Equal entries are not always repeated. One block for each molecule: values may come before it.

How the values were obtained:
[1] = GFR and ERPF-Long Renal Clearance (iothalamate and PAH continuous infusion): iothalamate concentration and GFR; format: in vivo; set-up: CE GFR / MS GFR: unit not given here; settings: one human subject; for CE GFR: corrected GFR per collection period from CE-UV; for CE GFR / MS GFR / Urine iothalamate concentration, CE / Urine iothalamate concentration, MS: continuous infusion; for MS GFR: corrected GFR per collection period from LC-MS/MS; for Plasma iothalamate concentration, CE / Plasma iothalamate concentration, MS: timed plasma collections P1-P6, continuous intravenous infusion; for Plasma iothalamate concentration, CE / Urine iothalamate concentration, CE: CE-UV; for Plasma iothalamate concentration, MS / Urine iothalamate concentration, MS: LC-MS/MS; for Urine iothalamate concentration, CE / Urine iothalamate concentration, MS: timed urine collections U1-U5
Description: For example, GFR can be calculated according to Formula I.
where UIoth is the concentration of iothalamate in urine, V is the urine flow rate (volume per unit of time), and PIoth is the plasma concentration during the urine collection period.
For the simultaneous determination of GFR and ERPF, iothalamate (Conray®, Mallinckrodt Inc. St. Louis, Mo.) and PAH (Aminohippurate Sodium, Merck & Co. Inc. Whitehouse Station, N.J.) were administered intravenously to one human subject. Iothalamate and PAH were administered using previously described constant infusion protocol. […] Blood samples were collected in tubes containing heparin or EDTA. Blood samples were centrifuged at 650 g for 7 minutes to separate plasma. Plasma was collected and stored at 4° C. to 8° C. Urine samples were collected and stored at 4° C. to 8° C. Frozen plasma and urine samples were thawed and stored at 4° C. to 8° C. until analysis.
The timed plasma collections (100 μL of each) were processed independently by diluting 1:3 with water followed by the addition of internal standard, D3-iothalamate and D4-PAH (20 μL of 38 μg/mL stock). The urine samples were diluted 1:10 with water and followed by the addition of internal standard, D3-iothalamate. All urine and plasma samples were then subjected to acetonitrile and/or 70% acetone polypeptide precipitation (100 μL) followed by centrifugation for 5 minutes at 650 g to remove/pellet protein. […]

[2] = GFR and ERPF-Long Renal Clearance (iothalamate and PAH continuous infusion): PAH concentration and ERPF; format: in vivo; set-up: CE ERPF / MS ERPF: unit not given here; settings: one human subject
Description: ERPF can be calculated according to Formula II.
Blood samples were collected in tubes containing heparin or EDTA. Blood samples were centrifuged at 650 g for 7 minutes to separate plasma. Plasma was collected and stored at 4° C. to 8° C. Urine samples were collected and stored at 4° C. to 8° C. Frozen plasma and urine samples were thawed and stored at 4° C. to 8° C. until analysis.
The urine samples were diluted 1:10 with water and followed by the addition of internal standard, D3-iothalamate. All urine and plasma samples were then subjected to acetonitrile and/or 70% acetone polypeptide precipitation (100 μL) followed by centrifugation for 5 minutes at 650 g to remove/pellet protein. […]

CE GFR ([1]; collection period P1): 138
CE GFR ([1]; collection period P2): 127
CE GFR ([1]; collection period P3): 123
CE GFR ([1]; collection period P4): 114
CE GFR ([1]; collection period P5): 119
MS GFR ([1]; collection period P1): 141
MS GFR ([1]; collection period P2): 114
MS GFR ([1]; collection period P3): 120
MS GFR ([1]; collection period P4): 116
MS GFR ([1]; collection period P5): 119
Plasma iothalamate concentration, CE ([1]; plasma collection P1): 11.645 µg/mL
Plasma iothalamate concentration, CE ([1]; plasma collection P2): 9.479 µg/mL
Plasma iothalamate concentration, CE ([1]; plasma collection P3): 8.341 µg/mL
Plasma iothalamate concentration, CE ([1]; plasma collection P4): 7.334 µg/mL
Plasma iothalamate concentration, CE ([1]; plasma collection P5): 6.869 µg/mL
Plasma iothalamate concentration, CE ([1]; plasma collection P6): 6.912 µg/mL
Plasma iothalamate concentration, MS ([1]; plasma collection P1): 10.6 µg/mL
Plasma iothalamate concentration, MS ([1]; plasma collection P2): 9.09 µg/mL
Plasma iothalamate concentration, MS ([1]; plasma collection P3): 7.93 µg/mL
Plasma iothalamate concentration, MS ([1]; plasma collection P4): 8.21 µg/mL
Plasma iothalamate concentration, MS ([1]; plasma collection P5): 7.12 µg/mL
Plasma iothalamate concentration, MS ([1]; plasma collection P6): 6.43 µg/mL
Urine iothalamate concentration, CE ([1]; urine collection U1): 12.973 µg/mL
Urine iothalamate concentration, CE ([1]; urine collection U2): 9.189 µg/mL
Urine iothalamate concentration, CE ([1]; urine collection U3): 8.069 µg/mL
Urine iothalamate concentration, CE ([1]; urine collection U4): 7.716 µg/mL
Urine iothalamate concentration, CE ([1]; urine collection U5): 7.333 µg/mL
Urine iothalamate concentration, MS ([1]; urine collection U1): 12.4 µg/mL
Urine iothalamate concentration, MS ([1]; urine collection U2): 7.85 µg/mL
Urine iothalamate concentration, MS ([1]; urine collection U3): 8.09 µg/mL
Urine iothalamate concentration, MS ([1]; urine collection U4): 8.5 µg/mL
Urine iothalamate concentration, MS ([1]; urine collection U5): 7.21 µg/mL
SMILES: CNC(=O)c1c(I)c(NC(C)=O)c(I)c(C(=O)O)c1I [Iothalamate, iothalamate]

MS ERPF ([2]; ERPF per collection period from LC-MS/MS, continuous infusion): 586 and 514 and 532 and 602 and 566
CE ERPF ([2]; ERPF per collection period, CE, continuous infusion): 574 and 534 and 523 and 615 and 543
Urine PAH concentration, CE ([2]; timed urine collections U1-U5, CE, continuous infusion): 97.620 µg/mL
SMILES: Nc1ccc(C(=O)NCC(=O)O)cc1 [PAH, p-aminohippuric acid]
Plasma PAH concentration, CE ([2]; timed plasma collections P1-P6, CE, continuous intravenous infusion): 17.755 µg/mL and 17.120 µg/mL and 17.740 µg/mL and 18.320 µg/mL and 18.000 µg/mL and 17.635 µg/mL
Plasma PAH concentration, MS ([2]; timed plasma collections P1-P6, LC-MS/MS, continuous intravenous infusion): 18.3 µg/mL and 18 µg/mL and 18.7 µg/mL and 18.9 µg/mL and 19.4 µg/mL and 17.9 µg/mL
